Measurements reported in ChEMBL document CHEMBL5728800, “JAK inhibitors” (2021).

Key:
[1] = biological target: T1, Tyrosine-protein kinase JAK3 (Homo sapiens, UniProt P52333); experiment: (§1) JAK/TYK2 Assay: 10 mM test compound stock or 1 mM control compound stock (tofocitinib, ruxolitinib or staurosporine) in DMSO was diluted to 0.4 mM in DMSO. A 3-fold series dilution was then performed in DMSO to generate 10 different compound concentrations. The assay was carried out in 384-well white plate. 0.5 uL of 40× compound DMSO solution at different concentrations was mixed with 10 uL 2× enzyme prepared in reaction buffer (20 mM HEPES, 10 mM MgCl2, 0.01% Tween, 1 mM DTT, pH 7.5). 10 uL 2× substrate mixture prepared in reaction buffer was then added to start the reaction. A short spin was done to settle down all solutions to the bottom of the plate. Final concentrations of test compound in the reaction mixture were 10000, 3333, 1111, 370, 123, 41.2, 13.7, 4.57, 1.52and 0.51 nM. Concentrations of control compound were ten times less. Enzymatic reaction was conducted at 25° C. for 1-2 hours. 10 uL of Kinase Glo Reagents was added to stop the reaction and generate the luminescent signal which was measured using Envision. Luminescence signal was inversely related to kinase activity. […] The mixture without any compound was the positive control.
T1 sequence (P52333 whole entry): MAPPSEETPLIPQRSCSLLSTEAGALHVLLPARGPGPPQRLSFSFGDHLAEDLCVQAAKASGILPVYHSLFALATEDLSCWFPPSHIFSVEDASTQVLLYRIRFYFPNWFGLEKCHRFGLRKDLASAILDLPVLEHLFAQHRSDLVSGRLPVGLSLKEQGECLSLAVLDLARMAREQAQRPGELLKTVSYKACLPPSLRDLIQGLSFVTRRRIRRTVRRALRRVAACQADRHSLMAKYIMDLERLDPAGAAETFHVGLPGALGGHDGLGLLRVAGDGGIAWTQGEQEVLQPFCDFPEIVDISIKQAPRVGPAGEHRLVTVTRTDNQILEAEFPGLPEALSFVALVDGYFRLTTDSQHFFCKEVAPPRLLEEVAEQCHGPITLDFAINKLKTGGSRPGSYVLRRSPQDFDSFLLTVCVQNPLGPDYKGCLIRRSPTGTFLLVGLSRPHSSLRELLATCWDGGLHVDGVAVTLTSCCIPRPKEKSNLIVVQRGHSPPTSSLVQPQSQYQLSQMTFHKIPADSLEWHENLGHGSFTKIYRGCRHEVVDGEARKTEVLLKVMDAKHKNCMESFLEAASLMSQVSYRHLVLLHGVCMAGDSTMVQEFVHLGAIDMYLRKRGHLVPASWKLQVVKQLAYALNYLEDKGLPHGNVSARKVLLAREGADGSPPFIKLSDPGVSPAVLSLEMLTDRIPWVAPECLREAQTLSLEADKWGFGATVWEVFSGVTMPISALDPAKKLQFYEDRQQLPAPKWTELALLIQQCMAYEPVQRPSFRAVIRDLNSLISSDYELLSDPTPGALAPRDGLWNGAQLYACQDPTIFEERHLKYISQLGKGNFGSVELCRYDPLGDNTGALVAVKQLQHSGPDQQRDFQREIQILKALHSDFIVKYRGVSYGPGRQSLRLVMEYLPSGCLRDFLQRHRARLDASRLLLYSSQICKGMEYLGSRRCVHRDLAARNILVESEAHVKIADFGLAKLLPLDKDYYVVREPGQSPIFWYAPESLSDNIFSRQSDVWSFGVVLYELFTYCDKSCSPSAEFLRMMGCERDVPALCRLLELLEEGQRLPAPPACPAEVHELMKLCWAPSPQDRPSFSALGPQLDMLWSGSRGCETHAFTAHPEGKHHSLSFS

[2] = biological target: Non-receptor tyrosine-protein kinase TYK2 (Homo sapiens, UniProt P29597); experiment: as §1
Sequence of Non-receptor tyrosine-protein kinase TYK2 (P29597 whole entry): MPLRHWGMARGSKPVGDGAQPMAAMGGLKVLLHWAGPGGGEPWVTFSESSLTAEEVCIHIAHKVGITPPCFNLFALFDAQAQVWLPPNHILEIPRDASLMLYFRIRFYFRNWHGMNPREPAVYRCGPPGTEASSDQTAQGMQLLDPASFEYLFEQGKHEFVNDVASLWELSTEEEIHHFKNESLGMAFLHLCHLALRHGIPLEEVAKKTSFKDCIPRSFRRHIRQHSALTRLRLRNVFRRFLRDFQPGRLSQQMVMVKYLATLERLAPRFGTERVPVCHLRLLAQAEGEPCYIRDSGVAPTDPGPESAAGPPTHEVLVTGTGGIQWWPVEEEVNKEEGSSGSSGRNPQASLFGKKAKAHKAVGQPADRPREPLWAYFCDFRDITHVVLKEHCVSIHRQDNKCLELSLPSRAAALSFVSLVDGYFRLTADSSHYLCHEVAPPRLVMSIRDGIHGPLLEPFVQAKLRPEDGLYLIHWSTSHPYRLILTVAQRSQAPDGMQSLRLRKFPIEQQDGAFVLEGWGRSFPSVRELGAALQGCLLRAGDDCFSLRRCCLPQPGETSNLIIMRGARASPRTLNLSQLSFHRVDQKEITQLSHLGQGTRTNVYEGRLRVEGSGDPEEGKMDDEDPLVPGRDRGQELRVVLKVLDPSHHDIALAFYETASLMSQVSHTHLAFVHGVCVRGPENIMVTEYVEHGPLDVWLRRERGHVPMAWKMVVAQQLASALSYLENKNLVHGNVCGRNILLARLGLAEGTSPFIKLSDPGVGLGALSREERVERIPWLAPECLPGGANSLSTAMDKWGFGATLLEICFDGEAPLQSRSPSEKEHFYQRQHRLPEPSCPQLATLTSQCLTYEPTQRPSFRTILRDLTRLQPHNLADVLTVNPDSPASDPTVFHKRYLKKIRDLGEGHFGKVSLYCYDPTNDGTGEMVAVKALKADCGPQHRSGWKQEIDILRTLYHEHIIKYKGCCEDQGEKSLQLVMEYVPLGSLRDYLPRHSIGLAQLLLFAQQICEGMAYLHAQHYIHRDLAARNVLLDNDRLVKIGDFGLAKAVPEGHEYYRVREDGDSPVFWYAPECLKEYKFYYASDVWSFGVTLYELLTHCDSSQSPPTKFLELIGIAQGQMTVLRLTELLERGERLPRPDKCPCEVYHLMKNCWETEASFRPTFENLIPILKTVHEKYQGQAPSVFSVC

[3] = biological target: Tyrosine-protein kinase JAK1 (Homo sapiens, UniProt P23458); experiment: as §1
Sequence of Tyrosine-protein kinase JAK1 (P23458 whole entry): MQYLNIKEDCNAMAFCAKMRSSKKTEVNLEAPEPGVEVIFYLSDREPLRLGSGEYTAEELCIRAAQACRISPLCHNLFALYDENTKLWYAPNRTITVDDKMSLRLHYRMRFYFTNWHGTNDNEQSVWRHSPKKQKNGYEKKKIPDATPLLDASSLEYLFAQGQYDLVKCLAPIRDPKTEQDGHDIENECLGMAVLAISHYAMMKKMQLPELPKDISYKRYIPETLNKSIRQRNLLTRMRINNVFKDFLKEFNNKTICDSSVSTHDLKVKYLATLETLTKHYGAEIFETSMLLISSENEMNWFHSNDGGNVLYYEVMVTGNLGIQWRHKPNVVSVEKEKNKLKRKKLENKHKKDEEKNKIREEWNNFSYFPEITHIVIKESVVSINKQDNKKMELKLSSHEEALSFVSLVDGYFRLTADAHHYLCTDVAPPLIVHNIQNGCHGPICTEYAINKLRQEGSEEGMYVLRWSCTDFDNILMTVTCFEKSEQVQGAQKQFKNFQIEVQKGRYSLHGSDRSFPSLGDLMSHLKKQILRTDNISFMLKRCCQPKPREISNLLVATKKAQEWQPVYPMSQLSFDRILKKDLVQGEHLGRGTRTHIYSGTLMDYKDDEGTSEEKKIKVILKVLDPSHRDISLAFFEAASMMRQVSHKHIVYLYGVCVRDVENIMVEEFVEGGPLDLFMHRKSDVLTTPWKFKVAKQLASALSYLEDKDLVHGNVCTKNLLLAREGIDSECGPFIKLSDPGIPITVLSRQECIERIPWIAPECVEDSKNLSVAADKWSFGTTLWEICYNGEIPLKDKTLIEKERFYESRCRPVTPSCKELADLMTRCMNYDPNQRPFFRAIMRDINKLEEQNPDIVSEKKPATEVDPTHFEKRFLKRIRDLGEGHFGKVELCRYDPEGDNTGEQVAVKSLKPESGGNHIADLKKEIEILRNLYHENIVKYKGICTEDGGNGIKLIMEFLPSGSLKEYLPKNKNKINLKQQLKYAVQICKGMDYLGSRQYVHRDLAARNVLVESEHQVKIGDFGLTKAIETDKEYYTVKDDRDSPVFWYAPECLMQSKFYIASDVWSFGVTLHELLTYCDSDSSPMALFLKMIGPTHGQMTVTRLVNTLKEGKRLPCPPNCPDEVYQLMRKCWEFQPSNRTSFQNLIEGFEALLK

[4] = biological target: Tyrosine-protein kinase JAK2 (Homo sapiens, UniProt O60674); experiment: as §1, with “Final concentrations of test compound in the reaction mixture were 10000, 3333, 1111, 370, 123, 41.2, 13.7, 4.57, 1.52and 0.51 nM.” left out
Sequence of Tyrosine-protein kinase JAK2 (O60674 whole entry): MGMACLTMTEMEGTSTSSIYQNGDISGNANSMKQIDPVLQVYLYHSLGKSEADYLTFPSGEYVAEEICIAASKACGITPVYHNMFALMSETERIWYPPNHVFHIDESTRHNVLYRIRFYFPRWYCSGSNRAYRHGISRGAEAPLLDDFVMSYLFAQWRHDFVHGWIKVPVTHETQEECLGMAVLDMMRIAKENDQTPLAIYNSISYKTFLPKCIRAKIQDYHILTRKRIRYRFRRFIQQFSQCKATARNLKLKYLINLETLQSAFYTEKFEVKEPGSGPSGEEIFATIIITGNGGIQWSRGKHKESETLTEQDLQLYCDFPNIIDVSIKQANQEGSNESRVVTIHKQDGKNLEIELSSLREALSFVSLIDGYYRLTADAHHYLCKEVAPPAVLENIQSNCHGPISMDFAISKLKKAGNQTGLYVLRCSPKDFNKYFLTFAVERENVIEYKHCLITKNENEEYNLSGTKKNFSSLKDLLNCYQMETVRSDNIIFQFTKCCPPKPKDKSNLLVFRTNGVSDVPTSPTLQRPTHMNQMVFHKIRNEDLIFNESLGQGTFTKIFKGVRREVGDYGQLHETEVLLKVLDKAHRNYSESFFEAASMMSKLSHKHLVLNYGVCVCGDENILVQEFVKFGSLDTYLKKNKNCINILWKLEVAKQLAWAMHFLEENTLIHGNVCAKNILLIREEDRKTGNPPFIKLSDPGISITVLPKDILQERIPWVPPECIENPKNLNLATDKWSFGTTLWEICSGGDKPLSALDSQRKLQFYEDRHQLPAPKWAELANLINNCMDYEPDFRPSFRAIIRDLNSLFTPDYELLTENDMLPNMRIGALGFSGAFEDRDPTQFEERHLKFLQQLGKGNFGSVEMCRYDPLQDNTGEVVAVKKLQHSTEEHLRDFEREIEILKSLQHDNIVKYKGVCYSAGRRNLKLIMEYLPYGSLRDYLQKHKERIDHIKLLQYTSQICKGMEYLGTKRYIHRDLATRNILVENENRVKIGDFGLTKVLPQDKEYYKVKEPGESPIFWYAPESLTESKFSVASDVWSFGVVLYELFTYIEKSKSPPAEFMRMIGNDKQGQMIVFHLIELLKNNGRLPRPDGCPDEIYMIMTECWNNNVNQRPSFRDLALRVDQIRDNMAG

Measured: IC50

CC[C@H](Cn1ccc2cnc(Nc3cnn([C@@H](CCO)C(=O)O)c3)nc21)C(C)C
< 100 nM: all assays above

CCC(CC)Cn1ccc2cnc(Nc3cnn(CC(=O)OCC4OC(O)CC(O)C4O)c3)nc21 (stereo not drawn)
< 100 nM: all assays above
